Laboratory results reported in the NIST ThermoML archive (doi:10.1021/acs.jced.8b00132).
Where “and” joins values, the source holds several entries; their conditions need not be identical. Equal entries are not always repeated.

O=C(C(F)(F)C(F)(F)F)C(F)(C(F)(F)F)C(F)(F)F [dodecafluoro-2-methylpentan-3-one]
Settings	thermal conductivity
344.55 K, 132 kPa, Gas, hot wire	0.01525 W/m/K
344.55 K, 192 kPa, Gas, transient hot wire	0.01458 W/m/K
344.56 K, 170 kPa, Gas, transient hot wire	0.01468 W/m/K
344.56 K, 192 kPa, Gas, transient hot wire	0.01463 W/m/K
344.57 K, 170 kPa, Gas, transient hot wire	0.01503 W/m/K
344.6 K, 134 kPa, Gas, transient hot wire	0.01526 W/m/K and 0.01525 W/m/K
344.61 K, 83 kPa, Gas, hot wire	0.01485 W/m/K
344.62 K, 83 kPa, Gas, hot wire	0.0148 W/m/K
344.67 K, 26 kPa, Gas, hot wire	0.01453 W/m/K
344.68 K, 26 kPa, Gas, hot wire	0.01449 W/m/K
344.8 K, 192 kPa, Gas, transient hot wire	0.01479 W/m/K and 0.01481 W/m/K
344.83 K, 170 kPa, Gas, transient hot wire	0.01525 W/m/K and 0.01449 W/m/K
344.85 K, 134 kPa, Gas, transient hot wire	0.01542 W/m/K
344.87 K, 134 kPa, Gas, transient hot wire	0.01544 W/m/K
345.08 K, 191 kPa, Gas, transient hot wire	0.0149 W/m/K
345.08 K, 192 kPa, Gas, transient hot wire	0.01491 W/m/K
345.11 K, 169 kPa, Gas, transient hot wire	0.01531 W/m/K
345.11 K, 170 kPa, Gas, transient hot wire	0.01528 W/m/K
345.14 K, 134 kPa, Gas, transient hot wire	0.01546 W/m/K
345.15 K, 133 kPa, Gas, transient hot wire	0.01547 W/m/K
345.36 K, 191 kPa, Gas, transient hot wire	0.01503 W/m/K
345.37 K, 191 kPa, Gas, transient hot wire	0.01504 W/m/K
345.39 K, 169 kPa, Gas, transient hot wire	0.01534 W/m/K
345.4 K, 169 kPa, Gas, transient hot wire	0.01485 W/m/K
345.44 K, 133 kPa, Gas, transient hot wire	0.01551 W/m/K
345.45 K, 133 kPa, Gas, transient hot wire	0.0155 W/m/K
345.67 K, 191 kPa, Gas, transient hot wire	0.01515 W/m/K
345.68 K, 191 kPa, Gas, transient hot wire	0.01514 W/m/K
345.72 K, 169 kPa, Gas, transient hot wire	0.0154 W/m/K and 0.01511 W/m/K
345.77 K, 132 kPa, Gas, transient hot wire	0.01531 W/m/K
345.77 K, 133 kPa, Gas, transient hot wire	0.01548 W/m/K
358.25 K, 257 kPa, Gas, hot wire	0.01686 W/m/K
358.26 K, 257 kPa, Gas, hot wire	0.01685 W/m/K
358.3 K, 188 kPa, Gas, hot wire	0.01631 W/m/K
358.3 K, 189 kPa, Gas, hot wire	0.01648 W/m/K
358.33 K, 91 kPa, Gas, hot wire	0.01584 W/m/K
358.34 K, 91 kPa, Gas, hot wire	0.01584 W/m/K
358.37 K, 26 kPa, Gas, hot wire	0.01548 W/m/K and 0.01551 W/m/K
358.38 K, 256 kPa, Gas, hot wire	0.01692 W/m/K
358.38 K, 257 kPa, Gas, hot wire	0.01694 W/m/K
358.43 K, 187 kPa, Gas, hot wire	0.01629 W/m/K
358.43 K, 188 kPa, Gas, hot wire	0.01632 W/m/K
358.47 K, 91 kPa, Gas, hot wire	0.01587 W/m/K and 0.0159 W/m/K
358.5 K, 26 kPa, Gas, hot wire	0.01551 W/m/K
358.5 K, 256 kPa, Gas, hot wire	0.01713 W/m/K
358.51 K, 26 kPa, Gas, hot wire	0.0155 W/m/K
358.52 K, 256 kPa, Gas, hot wire	0.0169 W/m/K
358.57 K, 187 kPa, Gas, hot wire	0.01629 W/m/K and 0.01635 W/m/K
358.62 K, 91 kPa, Gas, hot wire	0.01584 W/m/K and 0.01592 W/m/K
358.62 K, 255 kPa, Gas, hot wire	0.01734 W/m/K
358.63 K, 256 kPa, Gas, hot wire	0.01729 W/m/K
358.65 K, 67979 kPa, Liquid, transient hot wire	0.07391 W/m/K
358.66 K, 26 kPa, Gas, hot wire	0.01548 W/m/K and 0.01547 W/m/K
358.66 K, 67960 kPa, Liquid, transient hot wire	0.07383 W/m/K
358.69 K, 56156 kPa, Liquid, transient hot wire	0.07064 W/m/K
358.69 K, 56160 kPa, Liquid, transient hot wire	0.07055 W/m/K
358.71 K, 187 kPa, Gas, hot wire	0.01648 W/m/K and 0.01644 W/m/K
358.77 K, 92 kPa, Gas, hot wire	0.01588 W/m/K and 0.01586 W/m/K
358.77 K, 255 kPa, Gas, hot wire	0.01736 W/m/K
358.77 K, 43866 kPa, Liquid, transient hot wire	0.06694 W/m/K
358.77 K, 43876 kPa, Liquid, transient hot wire	0.06686 W/m/K
358.78 K, 255 kPa, Gas, hot wire	0.01726 W/m/K
358.82 K, 26 kPa, Gas, hot wire	0.01555 W/m/K and 0.0155 W/m/K
358.82 K, 67912 kPa, Liquid, transient hot wire	0.07388 W/m/K
358.82 K, 67930 kPa, Liquid, transient hot wire	0.07402 W/m/K
358.83 K, 33615 kPa, Liquid, transient hot wire	0.06347 W/m/K
358.84 K, 257 kPa, Gas, transient hot wire	0.01632 W/m/K
358.84 K, 258 kPa, Gas, transient hot wire	0.01621 W/m/K
358.84 K, 33614 kPa, Liquid, transient hot wire	0.06347 W/m/K
358.85 K, 186 kPa, Gas, hot wire	0.0166 W/m/K and 0.01657 W/m/K
358.85 K, 56137 kPa, Liquid, transient hot wire	0.07063 W/m/K
358.88 K, 189 kPa, Gas, transient hot wire	0.01639 W/m/K
358.88 K, 56124 kPa, Liquid, transient hot wire	0.07064 W/m/K
358.9 K, 188 kPa, Gas, transient hot wire	0.01635 W/m/K
358.92 K, 24957 kPa, Liquid, transient hot wire	0.06017 W/m/K
358.92 K, 24958 kPa, Liquid, transient hot wire	0.06023 W/m/K
358.94 K, 92 kPa, Gas, hot wire	0.01588 W/m/K
358.95 K, 92 kPa, Gas, hot wire	0.01588 W/m/K
358.95 K, 43858 kPa, Liquid, transient hot wire	0.06694 W/m/K
358.95 K, 43862 kPa, Liquid, transient hot wire	0.06691 W/m/K
358.98 K, 26 kPa, Gas, hot wire	0.01553 W/m/K
358.99 K, 26 kPa, Gas, hot wire	0.0155 W/m/K
358.99 K, 67877 kPa, Liquid, transient hot wire	0.0739 W/m/K
358.99 K, 67897 kPa, Liquid, transient hot wire	0.07388 W/m/K
